How the values were obtained:
[1] = tested on: 6-OHDA lesioned mice; assay: Cylinder test, contralateral paw usage (akinesia); type: in vivo; details: single dose equivalent to 5 mg/Kg DOPA; DOPA = L-DOPA/Benserazide 5 and 10 mg/Kg s/c
[2] = tested on: hemiparkinsonian mice; assay: Abnormal Involuntary Movements (AIMs) after chronic L-DOPA, Example 5; type: in vivo; details: daily L-DOPA (mixed with benserazide) injections, post-testing 15 days
Method: Mice were anesthetized with 5% isoflurane (Isothesia, Henry Schein Animal Health, Dublin, Ohio) in 100% oxygen with a delivery rate of 51/minute until loss of righting reflex and mounted on a stereotaxis. The anesthesia was maintained with 1 to 1.5% isoflurane throughout the surgical procedure. Body temperature was maintained using heating pads; respiration was monitored every 10 minutes. Mice were treated with desipramine HCl (25 mg/kg i/p) 30 minutes before the infusion of 6-hydroxydopamine (6-OHDA). […]
Measurement of Abnormal Involuntary Movements (AIMs) were quantified after chronic L-DOPA administration in hemiparkinsonian mice. In the pretesting sessions, mice were given daily injections of L-DOPA/benserazide (5/10 mg/Kg s/c) for 9 days; AIMs were assessed every 20 minutes for 3 hrs after injection every third day of L-DOPA injections. Total duration of contralateral abnormal movements of the tongue-orofacial muscles and forelimb, twisting of the body (dystonia), and locomotor (rotational) behavior were scored, as illustrated in FIG. 6E. […] After five days' rest, in the post-test phase, mice were administered DOPA-benserazide or one of the four ranitidine formulations (Form IA, IB, IIA, or IIB, as defined above) daily for 15 days; AIMs were again assessed every third day.
Western blots were quantified using band densitometry in Image J software (NIH version). […]

SMILES: N[C@@H](Cc1ccc(O)c(O)c1)C(=O)O [L-DOPA, L-3,4-dihydroxyphenylalanine]
- contralateral paw usage compared to saline treatment [1]: significantly increased contralateral paw usage
- AIMs over the course of daily administration [2]: increasing AIMs

From patent US20190054051A1, “DOPA Formulations for Treatments of Parkinson's Disease” (The Board of Trustees of the Leland Stanford Junior …, priority 2017, published 2019)
